From US5665704A, “Receptor specific atrial natriuretic peptides” (Genentech, Inc., priority 1995, dated 1997) come the findings set out here.

Read-outs that look alike come from different tables or passages of the source. Bridge positions count the residues as written; N and C are the ends. Square brackets hold non-standard residues; d marks the D form. Peptide text beside a SMILES is read from it. ξ: configuration not given here. ξPhg = NC(C(=O)O)c1ccccc1; Mpa = O=C(O)CCS

One data set has as its target T1, hNPR-A (Homo sapiens, UniProt P16066).
T1 sequence (P16066 33-1061): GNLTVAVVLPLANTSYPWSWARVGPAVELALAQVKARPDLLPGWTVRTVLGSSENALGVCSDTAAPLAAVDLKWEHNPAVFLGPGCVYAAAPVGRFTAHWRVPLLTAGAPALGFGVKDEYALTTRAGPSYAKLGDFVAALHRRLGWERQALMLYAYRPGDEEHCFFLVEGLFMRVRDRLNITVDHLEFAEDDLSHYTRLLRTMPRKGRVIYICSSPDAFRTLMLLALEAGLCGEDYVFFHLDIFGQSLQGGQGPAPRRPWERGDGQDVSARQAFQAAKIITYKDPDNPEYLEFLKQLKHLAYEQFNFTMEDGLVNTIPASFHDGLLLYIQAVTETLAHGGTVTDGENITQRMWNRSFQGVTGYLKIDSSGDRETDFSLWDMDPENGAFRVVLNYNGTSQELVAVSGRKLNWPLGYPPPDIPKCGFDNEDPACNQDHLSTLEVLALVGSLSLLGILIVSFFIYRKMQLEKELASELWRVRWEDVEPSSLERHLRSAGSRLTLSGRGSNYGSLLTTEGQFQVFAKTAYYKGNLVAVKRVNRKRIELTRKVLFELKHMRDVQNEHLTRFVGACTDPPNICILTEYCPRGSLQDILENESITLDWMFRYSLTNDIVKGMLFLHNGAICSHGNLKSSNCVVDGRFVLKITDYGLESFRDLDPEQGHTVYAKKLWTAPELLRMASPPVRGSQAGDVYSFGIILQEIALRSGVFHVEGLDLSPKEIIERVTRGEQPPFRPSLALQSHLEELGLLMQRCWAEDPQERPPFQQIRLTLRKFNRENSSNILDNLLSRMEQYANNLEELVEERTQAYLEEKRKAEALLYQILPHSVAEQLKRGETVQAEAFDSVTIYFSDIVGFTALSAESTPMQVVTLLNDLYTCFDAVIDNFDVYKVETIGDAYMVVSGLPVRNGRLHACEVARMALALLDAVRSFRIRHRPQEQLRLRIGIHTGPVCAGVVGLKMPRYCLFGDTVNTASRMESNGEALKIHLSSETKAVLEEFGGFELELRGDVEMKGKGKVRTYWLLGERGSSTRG
In words: Binding affinity for hNPR-A (competitive displacement of I^125 labeled wild-type ANF).

The next data set has as its target T2, hNPR-C (Homo sapiens, UniProt P17342).
T2 sequence (P17342 27-541): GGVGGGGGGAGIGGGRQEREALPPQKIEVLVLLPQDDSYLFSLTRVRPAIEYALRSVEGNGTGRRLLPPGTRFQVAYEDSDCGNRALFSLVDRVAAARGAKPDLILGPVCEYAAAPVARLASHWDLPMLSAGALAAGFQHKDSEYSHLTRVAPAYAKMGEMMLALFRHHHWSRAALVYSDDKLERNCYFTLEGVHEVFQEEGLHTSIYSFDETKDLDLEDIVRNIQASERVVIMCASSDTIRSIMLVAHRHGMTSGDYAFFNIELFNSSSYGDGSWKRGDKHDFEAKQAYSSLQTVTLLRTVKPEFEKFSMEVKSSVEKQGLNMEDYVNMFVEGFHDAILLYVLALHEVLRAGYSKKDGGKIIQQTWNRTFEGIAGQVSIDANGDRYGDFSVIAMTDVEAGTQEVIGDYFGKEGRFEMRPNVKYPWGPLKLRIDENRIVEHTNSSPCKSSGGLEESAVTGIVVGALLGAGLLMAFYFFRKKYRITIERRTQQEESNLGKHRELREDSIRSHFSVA
Briefly: Binding affinity for clearance receptor hNPR-C. The source says: For assay systems to measure binding of hANF and the compounds of this invention to hNPR-C see: Schank, D. B., et al., Biochem. Biophys. Res. Comm. 127:433-442 (1985); Scarborough, R. M., J. Biol. Chem. 261:12960-12964 and WO 90/01940.

The target of data set [1] is T3, Human endopeptidase 24.11 (hNEP) (Homo sapiens, UniProt P08473). In words: Degradation of ANF variants by human NEP, half-life by HPLC (Example 22).
T3 sequence (P08473 whole entry): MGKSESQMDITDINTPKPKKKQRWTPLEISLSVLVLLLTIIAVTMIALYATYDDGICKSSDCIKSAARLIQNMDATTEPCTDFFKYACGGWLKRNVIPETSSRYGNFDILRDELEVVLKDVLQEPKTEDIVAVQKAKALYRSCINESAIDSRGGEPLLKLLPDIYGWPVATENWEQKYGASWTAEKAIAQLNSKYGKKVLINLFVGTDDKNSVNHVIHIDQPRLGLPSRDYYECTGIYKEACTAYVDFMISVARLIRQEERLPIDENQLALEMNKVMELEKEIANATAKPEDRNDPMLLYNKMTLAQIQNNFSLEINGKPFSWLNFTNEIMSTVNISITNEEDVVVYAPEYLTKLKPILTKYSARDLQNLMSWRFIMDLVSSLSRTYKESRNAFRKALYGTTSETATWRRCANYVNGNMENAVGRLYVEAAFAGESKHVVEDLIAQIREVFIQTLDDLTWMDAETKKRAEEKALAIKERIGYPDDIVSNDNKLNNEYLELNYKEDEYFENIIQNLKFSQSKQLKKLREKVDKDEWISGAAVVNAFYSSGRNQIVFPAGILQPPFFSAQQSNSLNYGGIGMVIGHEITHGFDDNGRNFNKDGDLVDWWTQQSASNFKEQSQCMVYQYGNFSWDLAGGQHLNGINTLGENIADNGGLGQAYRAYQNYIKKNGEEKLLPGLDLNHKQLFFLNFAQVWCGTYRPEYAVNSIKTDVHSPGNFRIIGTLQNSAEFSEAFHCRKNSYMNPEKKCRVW
Procedure: (§1) The half-life of various ANF variants was measured according to the following procedure.
(§2) ANF Solution: An accurately weighed amount of ANF or variant thereof was diluted with HEPES buffer (5 ml of 1M HEPES Buffer and 0.1 ml of Tween 20 diluted to a 100 ml volume with DI water) to make a 0.5 mg/ml solution.
(§3) hNEP/HEPES Solution: 75 μl of a 1 mg/ml solution of hNEP (see U.S. Pat. No. 4,960,700) is dissolved in 992.5 μl of HEPES buffer (as described above) and vortex mixed. The resulting mixture is stored in a silylated Eppendorf tube and periodically checked for activity against an ANF peptide standard.
(§4) Assay conditions: 150 μl of an ANF solution in the HEPES buffer is diluted with 820 μl HEPES buffer and vortex mixed (1 sec). Careful note of the time is taken as 30 μl of the hNEP/HEPES solution is added and the solution is vortex mixed for 1 sec. and analyzed by periodic removal of constant volume aliquots by the HPLC autosampler. A 2.5 cm×50 cm, C-18 reversed-phase column (15 micron, 300Å]) was used and elution was achieved by using a shallow gradient of increasing acetonitrile. The elution conditions consisted of a 10% to 50% acetonitrile (containing 0.1% TFA) gradient at 0.5% min.^-1. The aqueous phase was 0.1% TFA in water. The peak area of the ANP peptide is recorded at these periodic intervals and a half-life is determined from these values.
Data set [2] addresses T3, Human endopeptidase 24.11 (hNEP). In words: in vitro. Particulars: isolated enzyme.
Procedure: as §1, §2, §3, §4

For the molecule `CC[C@H](C)[C@@H]1NC(=O)[C@H](CCCNC(=N)N)NC(=O)[C@H](CC(=O)O)NC(=O)[C@H]([C@@H](C)CC)NC(=O)[C@H](CCCNC(=N)N)NC(=O)CNC(=O)CNC(=O)[C@H](Cc2ccccc2)NC(=O)[C@@H](NC(=O)[C@H](CO)NC(=O)[C@H](CO)NC(=O)[C@H](CCCNC(=N)N)NC(=O)[C@H](CCCNC(=N)N)NC(=O)[C@H](CC(C)C)NC(=O)[C@H](CO)NC(=O)[C@H](CCCNC(=N)N)NC(=O)[C@@H]2CCCN2C(=O)[C@H](C)NC(=O)[C@@H](N)[C@@H](C)O)CSSC[C@@H](C(=O)N[C@@H](CC(N)=O)C(=O)N[C@@H](CO)C(=O)N[C@@H](Cc2ccccc2)C(=O)N[C@@H](CCCNC(=N)N)C(=O)N[C@@H](Cc2ccc(O)cc2)C(=O)O)NC(=O)CNC(=O)[C@H](CC(C)C)NC(=O)CNC(=O)[C@H](CO)NC(=O)[C@H](CCC(N)=O)NC(=O)[C@H](C)NC(=O)[C@H](CCCNC(=N)N)NC1=O` [ANF23] (H-TAPRSLRRSSCFGGRIDRIRAQSGLGCNSFRY-OH; disulfide 11-27), the values for the IC50 at hNPR-A and on hNPR-C were 44 pM and 4190 pM, respectively. The “Half-Life” value in data set [1] (FIG. 6: ANF variants 0.5 mg/ml, endopeptidase 11.24 (NEP) 0.225 mg/ml) is 12.3 h.
For `CC[C@H](C)[C@@H]1NC(=O)[C@H](CCCNC(=N)N)NC(=O)[C@H](CC(=O)O)NC(=O)[C@H]([C@@H](C)CC)NC(=O)[C@H](CC(=O)O)NC(=O)CNC(=O)[C@H](CCCNC(=N)N)NC(=O)[C@H](Cc2ccccc2)NC(=O)[C@@H](NC(=O)[C@H](CO)NC(=O)[C@H](CO)NC(=O)[C@H](CCCNC(=N)N)NC(=O)[C@H](CCCNC(=N)N)NC(=O)[C@H](CC(C)C)NC(=O)[C@@H](N)CO)CSSC[C@@H](C(=O)N[C@@H](CC(N)=O)C(=O)N[C@@H](CO)C(=O)N[C@@H](Cc2ccccc2)C(=O)N[C@@H](CCCNC(=N)N)C(=O)N[C@@H](Cc2ccc(O)cc2)C(=O)O)NC(=O)CNC(=O)[C@H](CC(C)C)NC(=O)CNC(=O)[C@H](CO)NC(=O)[C@H](CCC(N)=O)NC(=O)[C@H](C)NC(=O)[C@H](CCCNC(=N)N)NC1=O` [ANF28] (H-SLRRSSCFRGDIDRIRAQSGLGCNSFRY-OH; disulfide 7-23), in data set [1] (human), the half-life (as a rule, the time needed for the level to fall by half in the phase considered) at 32 nM/ml is 9.52 h.
For `CC[C@H](C)[C@@H]1NC(=O)[C@H](CCCNC(=N)N)NC(=O)CNC(=O)CNC(=O)[C@H](Cc2ccccc2)NC(=O)[C@@H](C(C)C)NC(=O)[C@@H](NC(=O)[C@H](CO)NC(=O)[C@@H](N)CO)CSSC[C@@H](C(=O)N[C@@H](Cc2ccccc2)C(=O)N[C@@H](CCCNC(=N)N)C(=O)O)NC(=O)[C@H]([C@@H](C)CC)NC(=O)[C@H](CCCNC(=N)N)NC(=O)[C@H](CC(=O)O)NC1=O` [ANF40] (H-SSC[dV]FGGRIDRICFR-OH; disulfide 3-13 (inferred); N-terminus and C-terminus assumed), the half-life at 0.5 mg/ml in data set [1] (human) is 9.95 h.
On to `CC[C@H](C)[C@@H]1NC(=O)[C@H](CCCNC(=N)N)NC(=O)[C@H](CC(=O)O)NC(=O)[C@H]([C@@H](C)CC)NC(=O)[C@H](CC(=O)O)NC(=O)CNC(=O)[C@@H](C)NC(=O)[C@H](Cc2ccccc2)NC(=O)CCSSC[C@@H](C(=O)N[C@@H](CC(N)=O)C(=O)N[C@@H](CO)C(=O)N[C@@H](Cc2ccccc2)C(=O)N[C@@H](CCCNC(=N)N)C(=O)N[C@@H](Cc2ccc(O)cc2)C(=O)O)NC(=O)CNC(=O)[C@H](CC(C)C)NC(=O)CNC(=O)[C@H](CO)NC(=O)[C@H](CCC(N)=O)NC(=O)[C@H](C)NC(=O)[C@H](CCCNC(=N)N)NC1=O` [ANF92] ([Mpa]F[dA]GDIDRIRAQSGLGCNSFRY-OH; disulfide 1-17), for which, in data set [2], the half-life at 32 nM/ml stood at 1.77 h.
For `CC[C@H](C)[C@@H]1NC(=O)[C@H](CCCNC(=N)N)NC(=O)[C@H](CC(=O)O)NC(=O)[C@H]([C@@H](C)CC)NC(=O)[C@H](CO)NC(=O)CNC(=O)[C@H]([C@@H](C)O)NC(=O)C(c2ccccc2)NC(=O)[C@@H](NC(=O)[C@H](CO)NC(=O)[C@H](CO)NC(=O)[C@H](CCCNC(=N)N)NC(=O)[C@H](CCCNC(=N)N)NC(=O)[C@H](CC(C)C)NC(=O)[C@@H](N)CO)CSSC[C@@H](C(=O)N[C@@H](CC(N)=O)C(=O)N[C@@H](CO)C(=O)N[C@@H](Cc2ccccc2)C(=O)N[C@@H](CCCNC(=N)N)C(=O)N[C@@H](Cc2ccc(O)cc2)C(=O)O)NC(=O)CNC(=O)[C@H](CC(C)C)NC(=O)CNC(=O)[C@H](CO)NC(=O)[C@H](CCC(N)=O)NC(=O)[C@H](C)NC(=O)[C@H](CCCNC(=N)N)NC1=O` (some centres unmarked) [ANF100-1] (H-SLRRSSC[ξPhg]TGSIDRIRAQSGLGCNSFRY-OH; disulfide 7-23), the IC50 (commonly the concentration needed to halve the response being measured) at hNPR-A (Table I, read-out: Binding Affinity IC50 (pM) hNPR-A) worked out at 187 pM; on hNPR-C (Table I, read-out: Binding Affinity IC50 (pM) hNPR-C), 3.23e+06 pM.
